Results from patent US20090221624A1, “4-AMINOQUINOLINE COMPOUNDS FOR TREATING VIRUS-RELATED CONDITIONS” (priority 2005, published 2009).

Legend:
[1] = tested on: HCV replicon (Clone A cells, Huh7, subgenomic hepatits C virus RNA); assay: HCV Neo screening assay (HCV replicon, NPTII ELISA); assay type: cell-based, hepatitis C virus; details: for EC50 / inhibition at 25 µM: Hepatitis C virus, Huh-7; for EC50: Secondary Data, HCV; for inhibition at 25 µM: primary screening, 25 μM final concentration, 24 hours, percent inhibition of viral replication, read-out: HCV Inh; for HCV TI: therapeutic index CC50/EC50, HCV
[2] = tested on: RSV minigenome; assay: RSV minigenome-dependent β-galactosidase expression assay (RSV β-Gal); assay type: cell-based, respiratory syncytial virus; details: for EC50 / inhibition at 25 µM: human respiratory syncytial virus; for EC50: Secondary Data, RSV, read-out: RSV EC50; for inhibition at 25 µM: primary screening, 25 μM final concentration, 24 hours, percent inhibition of viral replication, read-out: RSV Inh; for RSV TI: therapeutic index CC50/EC50, RSV
[3] = tested on: WNV (WN-hRuPac cells); assay: WNV antiviral activity, WN-hRuPac cells, Renilla luciferase; assay type: cell-based, West Nile virus; details: for EC50 / inhibition at 25 µM: West Nile virus; for EC50: Secondary Data, WNV, read-out: WNV EC50; for inhibition at 25 µM: primary screening, 25 μM final concentration, 24 hours, percent inhibition of viral replication, read-out: WNV Inh; for WNV TI: therapeutic index CC50/EC50, WNV
[4] = tested on: YFV (YF-hRuPac cells); assay: microbe, parasite or virus in culture; assay type: cell-based, yellow fever virus; details: for inhibition at 25 µM / EC50: Yellow fever virus; for inhibition at 25 µM: 24 h, read-out: YFV Inh; for EC50: read-out: YFV EC50
[5] = tested on: DNG (D2-hRuPac cells); assay: DNG antiviral activity, D2-hRuPac cells, Renilla luciferase; assay type: cell-based, Dengue fever virus; details: Dengue virus, secondary screening
[6] = tested on: EBOV minigenome; assay: microbe, parasite or virus in culture; assay type: cell-based, Ebola virus; details: Zaire ebolavirus; for inhibition at 25 µM: 24 h, read-out: EBOV Inh; for EC50: read-out: EBOV EC50
[7] = tested on: SINV (SR19-F-luc cells); assay: SINV antiviral activity, SR19-F-luc cells, Firefly luciferase; assay type: cell-based; details: Sindbis virus; for inhibition at 25 µM: primary screening, 25 μM final concentration, 24 hours, percent inhibition of viral replication, read-out: SINV Inh; for EC50: secondary screening, SR19-F-luc cells
[8] = in vitro

| Structure (SMILES) | inhibition at 25 µM [1] [%] | EC50 [2] [µM] | inhibition at 25 µM [2] [%] | RSV TI [2] | EC50 [3] [µM] | inhibition at 25 µM [3] [%] | WNV TI [3] | YFV TI [4] | inhibition at 25 µM [4] [%] | EC50 [4] [µM] | EC50 [5] [µM] | inhibition at 25 µM [6] [%] | EC50 [6] [µM] | inhibition at 25 µM [7] [%] | EC50 [7] [µM] | CC50 ([8]; DNG CC50) [µM] | CC50 ([8]; EBOV CC50) [µM] | CC50 ([8]; HCV CC50) [µM] | CC50 ([8]; RSV CC50) [µM] | CC50 ([8]; SINV CC50) [µM] | further results |
| --- | --- | --- | --- | --- | --- | --- | --- | --- | --- | --- | --- | --- | --- | --- | --- | --- | --- | --- | --- | --- | --- |
| Cc1ccc2nc3c(c(Nc4cccc(C(F)(F)F)c4)c2c1)CCC3 [Compound 26] | 148 | 4.1 | 99.9 | 12.95 | 3.71 | 62.2 | 14.32 | 8.88 | 77.2 | 5.98 | 48.2 | 38.8 | 75 | 53.3 | 18.5 | 53.1 | 53.1 | 8.35 | 53.1 | 53.1 | EC50 [1]: 7.57 µM; HCV TI [1]: 1.1; CC50 ([8]; WNV CC50): 53.1 µM; CC50 ([8]; YFV CC50): 53.1 µM |
| CCOc1ccc2nc(C)cc(Nc3ccc(OCc4ccccc4Cl)cc3)c2c1 [Compound 42] | 96.5 | 1.48 | 100 | 17.29 | 1.9 | 100 | 13.47 | 14.22 | 100 | 1.8 | 5.05 | 99.5 | 65.8 | 99.8 | 2.99 | 25.6 | 25.6 | 1.21 | 25.6 | 25.6 | EC50 [1]: 1.3 µM; HCV TI [1]: 0.93; CC50 ([8]; WNV CC50): 25.6 µM; CC50 ([8]; YFV CC50): 25.6 µM |
| Cc1ccc(Nc2cc(C)nc3c2ccc2ccccc23)cc1 [Compound 9] | 98.3 | 4.1 | 88.2 | 17.8 | 30.6 | 33.4 | 2.38 | 13.51 | 76.2 | 5.4 | ≥ 75 | -17.1 | 61.5 | 48.2 | ≥ 75 | 73 | 73 | 9.83 | 73 | 73 | EC50 [1]: 1.77 µM; HCV TI [1]: 5.55; CC50 ([8]; WNV CC50): 73 µM; CC50 ([8]; YFV CC50): 73 µM |
| CCOC(=O)c1ccc(Nc2cc(C)nc3c2ccc2ccccc23)cc1 [Compound 4] | 105 | 37 | 47.7 | 1.97 | ≥ 75 | 28.4 | 0.97 | 17.1 | 81.7 | 4.26 | 32.7 | 6.57 | 59.3 | -22.2 | ≥ 75 | 72.9 | 72.9 | 32.5 | 72.9 | 72.9 | EC50 [1]: 15.6 µM; HCV TI [1]: 2.08; CC50 ([8]; WNV CC50): 72.9 µM; CC50 ([8]; YFV CC50): 72.9 µM |
| Cc1ccc2nc(C)cc(NCc3ccco3)c2c1 [Compound 23] | 13.7 | 2.91 | 92 | 19.91 | 3.76 | 70.3 | 15.41 | 8.94 | 86.3 | 6.48 | 25.8 | -1.14 | 75 | 22.8 | ≥ 75 | 57.9 | 57.9 | ≥ 75 | 57.9 | 57.9 | CC50 ([8]; WNV CC50): 57.9 µM; CC50 ([8]; YFV CC50): 57.9 µM |
